Results taken from ChEMBL document CHEMBL1201862, “PubChem BioAssay data set” (2004).
Calls of active or inactive are those of the source.

Key:
[1] = growth suppression of PTEN-null colon cells, dose response, cell-based, HCT116 PTEN knockout (AID 1047); format: functional;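 further: HCT116 colon tumor cells with PTEN knocked out; cells exposed to compound for 60 hours before readout; potency for loss of cell viability measured by luminescence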
[2] = growth suppression of beta-catenin-knockout colon cells, dose response, cell-based, HCT116, human colon tumor (AID 1045); format: functional;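 further: HCT116 colon tumor cells with beta catenin knocked out; cells exposed to compound for 60 hours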
[3] = system: Vero; assay: host cell cytotoxicity of antiviral hits, dose response, cytotoxicity control for West Nile virus antiviral project, secondary assay (AID 1650); format: functional; conditions: Chlorocebus sabaeus
[4] = off-target signal loss in HeLa-CEM21 co-culture – HeLa F-luc CTL cells, cherry-picked, counter-screen for HIV-1 Env fusion inhibitor project, dose response (AID 652040); format: functional, cell-based;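 further: potency for signal decrease marking cytotoxic or nonspecific inhibition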
[5] = biological target: Heat shock protein HSP 90-alpha (Homo sapiens, UniProt P07900); assay: Luminescence-based dose response biochemical high throughput screening assay for inhibitors of the Heat Shock Protein 90 (HSP90). [Related pubchem assays: 1831 (Summary AID.), 1846 (Confirmation screen.), 1789 (Primary screen.)]
[6] = inhibitors of firefly luciferase expression or activity, dose response, H4 neuroglioma cells, luminescence (AID 1990); format: functional, cell-based
[7] = cytotoxicity dependent on PAX8, dose response, cell-based, plate reader, dry powder (AID 743049); format: functional
[8] = cytotoxicity in HEK-293T cells, dose response, cytotoxicity control for BCR NF-kB inhibitor project, luminescence, B-cell screen hits (AID 489021); format: functional, cell-based;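 further: HEK-293T cells carrying an NF-kB luciferase reporter; cells exposed to compound for about 14 hours before viability readout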
[9] = MC4R antagonists, dose response, counter-screen for LGR2 antagonist project, cell-based, plate reader, cherry pick (AID 743444); format: functional;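 further: transfected HEK 293 cells stimulated with alpha-MSH peptide; potency of inhibitors of the alpha-MSH evoked signal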
[10] = inhibitors of SNCA 5'UTR-driven reporter translation, confirmation, H4 neuroglioma cells, luminescence (AID 1988); format: functional, cell-based
[11] = Luminescence Cell-Based Dose Response HTS to Identify Inhibitors of 5'UTR Stem-Loop Driven Prion Protein mRNA Translation in H4 Neuroglioblastoma Cells. [Related pubchem assays: 1827 (Project Summary), 1813 (Primary HTS)]; format: functional
[12] = biological target: Paired box protein Pax-8 (Homo sapiens, UniProt Q06710); assay: inhibitors of PAX8-driven TPO luciferase reporter, dose response, RMG-I cells, cherry-pick (AID 687027); format: functional, cell-based;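 further: luciferase reporter driven by Pax8 target thyroperoxidase promoter measured by SteadyGlo luminescence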
Paired box protein Pax-8, sequence (Q06710 whole entry): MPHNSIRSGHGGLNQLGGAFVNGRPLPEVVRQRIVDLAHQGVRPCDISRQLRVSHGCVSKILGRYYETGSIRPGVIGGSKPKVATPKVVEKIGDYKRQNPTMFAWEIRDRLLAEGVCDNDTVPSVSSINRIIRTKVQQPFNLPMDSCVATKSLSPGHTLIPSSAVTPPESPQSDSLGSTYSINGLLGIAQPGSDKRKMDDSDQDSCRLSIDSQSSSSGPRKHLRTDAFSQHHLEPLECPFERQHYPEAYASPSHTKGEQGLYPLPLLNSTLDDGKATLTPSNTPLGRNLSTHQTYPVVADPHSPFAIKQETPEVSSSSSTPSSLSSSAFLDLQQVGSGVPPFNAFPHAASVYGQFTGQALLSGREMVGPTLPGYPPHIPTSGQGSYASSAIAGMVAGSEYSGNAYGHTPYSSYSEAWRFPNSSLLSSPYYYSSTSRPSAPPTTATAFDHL

[13] = LGR2 antagonists, dose response, cell-based, HEK293, CRE-luciferase reporter, cherry pick, set 2 (AID 743343); format: functional;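 further: transfected cells were stimulated with diluted bursicon conditioned medium after compound addition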
[14] = inhibitors of HIV Env-driven cell fusion, dose response, cherry-pick (AID 652057); format: functional, cell-based
[15] = inhibitors of clade B AD8 Env fusion, dose response, cell-based, cherry-pick (AID 652062); format: functional;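 further: luciferase signal from cell-cell fusion driven by HIV-1 clade B AD8 Env; potency is for inhibitors of fusion seen as a drop in luminescence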
[16] = PAX2 cell-based inhibition, dose response, selectivity assay for PAX8 inhibitor project, plate reader, dry powder samples (AID 743048); format: functional;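 further: HEK293 cells carrying a WT1 promoter luciferase reporter driven by expressed Pax2; potency is for inhibition of Pax2 driven reporter signal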
[17] = PAX5 activity inhibitors, dose response, selectivity assay for PAX8 inhibitor project, cell-based, plate reader, dry powder samples (AID 743047); format: functional;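 further: HEK293 cells carrying a Pax5 driven CD19 promoter luciferase reporter; potency of inhibitors that lower reporter luminescence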
[18] = ZM109 Env clade C HIV-1 fusion inhibitors, dose response, HeLa effector, CEM target cells, luciferase, cherry-pick (AID 652058); format: functional, cell-based
[19] = biological target: T1, Cytochrome P450 1A2 (Homo sapiens, UniProt P05177);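 further: PubChem cytochrome P450 panel assay, CYP1A2 panel member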
T1 sequence (P05177 whole entry): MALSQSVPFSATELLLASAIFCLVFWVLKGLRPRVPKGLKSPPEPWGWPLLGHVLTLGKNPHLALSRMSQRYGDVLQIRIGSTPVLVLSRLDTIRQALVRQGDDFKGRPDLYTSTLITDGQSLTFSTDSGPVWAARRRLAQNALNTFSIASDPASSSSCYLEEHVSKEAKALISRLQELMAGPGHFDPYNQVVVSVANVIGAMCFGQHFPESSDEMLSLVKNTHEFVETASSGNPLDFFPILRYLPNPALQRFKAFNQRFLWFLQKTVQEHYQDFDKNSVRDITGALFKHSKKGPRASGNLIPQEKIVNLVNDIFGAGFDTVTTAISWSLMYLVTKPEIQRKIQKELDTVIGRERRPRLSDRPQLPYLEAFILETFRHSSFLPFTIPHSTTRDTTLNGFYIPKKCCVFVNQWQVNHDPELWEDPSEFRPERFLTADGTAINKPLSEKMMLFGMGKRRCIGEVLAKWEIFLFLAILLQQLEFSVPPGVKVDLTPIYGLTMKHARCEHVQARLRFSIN

[20] = biological target: Cytochrome P450 2C19 (Homo sapiens, UniProt P33261); assay: Cytochrome panel assay with activity outcomes. Panel member name: p450-cyp2c19 Compounds with AC50 equal or less than 10 uM are considered active; format: functional; conditions: read-out: AC50
Cytochrome P450 2C19, sequence (P33261 whole entry): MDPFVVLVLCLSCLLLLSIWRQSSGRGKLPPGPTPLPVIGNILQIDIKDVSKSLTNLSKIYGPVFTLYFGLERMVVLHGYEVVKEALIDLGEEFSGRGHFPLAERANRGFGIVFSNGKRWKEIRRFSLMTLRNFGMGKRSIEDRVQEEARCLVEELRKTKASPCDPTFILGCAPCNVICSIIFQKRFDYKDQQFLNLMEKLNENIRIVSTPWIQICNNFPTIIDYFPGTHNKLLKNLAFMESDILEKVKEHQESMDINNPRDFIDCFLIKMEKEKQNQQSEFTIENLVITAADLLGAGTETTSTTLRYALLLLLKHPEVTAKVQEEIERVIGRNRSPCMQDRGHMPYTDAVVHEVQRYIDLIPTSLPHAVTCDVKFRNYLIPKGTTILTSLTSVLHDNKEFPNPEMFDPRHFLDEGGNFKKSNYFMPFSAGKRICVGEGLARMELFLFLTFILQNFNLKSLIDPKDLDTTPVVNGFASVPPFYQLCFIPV

[21] = biological target: E3 ubiquitin-protein ligase Mdm2 (Homo sapiens, UniProt Q00987); assay: enhancers of MDM2-luciferase reporter signal, concentration-effect titration, project on inhibitors of MDM2 ubiquitin ligase, cellular assay, luminescent readout, 384-well plate format (AID 1394); format: functional;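 further: MDM2 E3 inhibitors raise luminescence so EC50 is for signal enhancement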
E3 ubiquitin-protein ligase Mdm2, sequence (Q00987 whole entry): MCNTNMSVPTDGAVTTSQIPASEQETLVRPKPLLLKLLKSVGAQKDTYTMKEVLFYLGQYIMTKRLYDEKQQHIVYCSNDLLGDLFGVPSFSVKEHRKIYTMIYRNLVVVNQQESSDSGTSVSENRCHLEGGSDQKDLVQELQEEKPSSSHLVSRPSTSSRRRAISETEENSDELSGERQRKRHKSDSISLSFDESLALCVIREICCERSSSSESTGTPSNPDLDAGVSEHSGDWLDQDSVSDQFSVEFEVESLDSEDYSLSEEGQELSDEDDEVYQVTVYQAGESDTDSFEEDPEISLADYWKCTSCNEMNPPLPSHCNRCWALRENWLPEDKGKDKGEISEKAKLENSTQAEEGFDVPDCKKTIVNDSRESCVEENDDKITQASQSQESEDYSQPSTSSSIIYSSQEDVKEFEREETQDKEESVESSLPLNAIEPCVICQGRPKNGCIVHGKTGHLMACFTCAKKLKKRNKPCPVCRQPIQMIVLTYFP

Q: With `COc1ccc(-c2cc(-c3ccc(C)cc3)nc(SCc3nnc(-c4ccccc4)o3)c2C#N)cc1OC` as the compound, how does the EC50 [1] read?
A: 4.41 µM (active)

Q: What about the EC50 [2] of the same compound?
A: 4.36 µM (active)

Q: What about the CC50 [3] of the same compound?
A: 14.1 µM (active)

Q: With `O=C(CN1C(=O)c2ccccc2S1(=O)=O)c1ccccc1Cl` as the compound, how does the AC50 [4] read?
A: 1.52 µM (active)

Q: And the IC50 [5]?
A: 4.2 µM (active)

Q: And the EC50 [6]?
A: 0.283 µM (active)

Q: And the AC50 [7]?
A: > 100 µM (inactive)

Q: And the IC50 [8]?
A: > 80 µM (inactive)

Q: What about the AC50 [9] of the same compound?
A: 0.805 µM (active)

Q: What about the EC50 [10] of the same compound?
A: 0.104 µM (active)

Q: What about the EC50 [11] of the same compound?
A: 0.364 µM (active)

Q: And the AC50 [12]?
A: 7.18 µM (active)

Q: And the AC50 [13]?
A: 0.665 µM (active)

Q: What about the AC50 [14] of the same compound?
A: 2.17 µM (active)

Q: And the AC50 [15]?
A: 4.22 µM (active)

Q: And the AC50 [16]?
A: 9.61 µM (active)

Q: What about the AC50 [17] of the same compound?
A: 7.1 µM (active)

Q: What about the AC50 [18] of the same compound?
A: 12.5 µM (active)

Q: Which results are given for `CCN(CC(=O)Nc1ccc(N2CCOCC2)cc1)Cc1nc2ccccc2c(=O)[nH]1`?
A: AC50 [19]: 20 µM (inconclusive); AC50 [20]: 22.4 µM (inconclusive); EC50 [21]: 0.03 µM (not active)
